Literature values as cited in patent US20090011014A1, “Tablet Formulation for Sustained Drug-Release” (UNIVERSITE DE MONTREAL, priority 2004, published 2009).
Counter-ions that a name gives are not always drawn. Like-named read-outs stand apart in the source and are kept apart here.

How the values were obtained:
[1] = 400-mg substituted amylose tablet containing 10% of drug; example 5 and FIG. 16 of U.S. Pat. No. 5,879,707

CC(=O)Nc1ccc(O)cc1 [Acetaminophen]
Influence of pH on solubility (physiological conditions): not influenced by pH

O=C([O-])c1ccccc1O.[Na+] [Sodium salicylate]
Solubility, U.S.P. XXIII descriptive term: freely soluble
Time for release of 95% of the drug [1]: 6.5 h

CC(NC(C)(C)C)C(=O)c1cccc(Cl)c1 (stereo not shown) [bupropion hydrochloride]
Solubility, U.S.P. XXIII descriptive term (hydrochloride): freely soluble
